According to US4925861A, “Carboxystyrene derivatives and drugs containing them as effective ingredients” (Mitsubishi Kasei Corporation, priority 1987, dated 1990):

Tested on: Phospholipase A2 from Naja mocambique
Assay: in vitro phospholipase inhibiting activity (DPybPC fluorescence)
Type: biochemical
Details: compound 10^-5 M, substrate DPybPC 2 μM, pH 8.0, 25° C.

Compound | Phospholipase A2 Inhibition (%)
O=C(Nc1ccccc1C(=O)O)c1cccc(C=Cc2nc3ccccc3s2)c1 [Compound 13] | 73%
CCC(CC)(CNC(=O)c1cccc(C=Cc2nc3ccccc3s2)c1)C(=O)O [Compound 20] | 47%
